Source: patent US12459922B2 (Gilead Sciences, Inc., priority 2022, dated 2025)

Each molecule was assayed on endogenous cellular STAT1 (phosphorylated at Tyr701) in NCI-H1373 cells (assay: Phospho-STAT1 (Tyr701) LANCE Ultra TR-FRET Detection Assay). Details: 48 hours, phospho-STAT1 (Tyr701) induction, read-out: NH1373 pSTAT1 EC50.
Format: cell-based
Protocol: Phospho-STAT1 (Tyr701 LANCE Ultra TR-FRET Detection Assay
d. LANCE Ultra phospho-STAT1 (Tyr701) kits are designed for the detection of phosphorylated STAT1 in cell lysates using a simple, homogeneous LANCE Ultra sandwich assay (Cat. #TRF4028M). This assay is intended for assessing compound induction of endogenous levels of cellular STAT1 (phosphorylated at Tyr701) in NCI-H1373 cells. The NCI-H1373 cells are cultured in RPMI 1640 media containing 10% heat inactivated FBS, GlutaMAX, 1% Penicillin-Streptomycin. An Echo acoustic liquid handler is used to transfer 60 nanoliters of compound dilutions using the Echo Qualified, 384-well polypropylene microplate clear flat bottom source plates into a Greiner (#781080) cell culture microplate. NCI-H1373 cells are seeded into these compound-spotted culture plates at 30,000 cells/well in a 60 uL volume in growth media. The plates are incubated in a 5% CO2 humidified incubator at 37° C. for 48 hours. […] After spinning the plate down at 300 rpm for 1 min, the plate is read on an EnVision plate reader set up for Eu3+ Cryptate and fluorescence emission is measured at two different wavelengths (665 nm and 620 nm). The HTRF ratio is then calculated […] for each well to determine the amount of pSTAT1 in the cell lysate, and the data is then normalized to 10 uM GS-1154611 positive and DMSO negative controls.

Row | Compound | EC50
1 | C[C@@H](CCCn1ccc2cc(-c3ncc(C(F)(F)F)c(N)n3)c(F)cc2c1=O)Nc1cn[nH]c(=O)c1C(F)(F)F [Example 100, 6-[4-amino-5-(trifluoromethyl)pyrimidin-2-yl]-7-fluoro-2-[(4S)-4-[[6-oxo-5-(trifluoromethyl)-1H-pyridazin-4-yl]amino]pentyl]isoquinolin-1-one] | 4.35 nM

Same assay, conditions: Homo sapiens, NCI-H1373, 48 h, phospho-STAT1 (Tyr701) induction, read-out: NH1373 pSTAT1 EC50

Row | Compound | EC50
2 | C[C@@H](CCCn1ccc2cc(-c3ccc(C(F)(F)CO)cn3)c(F)cc2c1=O)Nc1cn[nH]c(=O)c1C(F)(F)F [Example 75, 6-[5-(1,1-difluoro-2-hydroxy-ethyl)-2-pyridyl]-7-fluoro-2-[(4S)-4-[[6-oxo-5-(trifluoromethyl)-1H-pyridazin-4-yl]amino]pentyl]isoquinolin-1-one] | 54.2 nM
3 | Cc1cnc(-c2cc3ccn(CCC[C@H](C)Nc4cn[nH]c(=O)c4C(F)(F)F)c(=O)c3c(F)c2F)nc1N [Example 77, (S)-6-(4-amino-5-methylpyrimidin-2-yl)-7,8-difluoro-2-(4-((6-oxo-5-(trifluoromethyl)-1,6-dihydropyridazin-4-yl)amino)pentyl)isoquinolin-1(2H)-one] | 13.5 nM
4 | Cc1cnc(-c2cc3ncn(CCC[C@H](C)Nc4cn[nH]c(=O)c4C(F)(F)F)c(=O)c3cc2F)nc1N [Example 78, (S)-7-(4-amino-5-methylpyrimidin-2-yl)-6-fluoro-3-(4-((6-oxo-5-(trifluoromethyl)-1,6-dihydropyridazin-4-yl)amino)pentyl)quinazolin-4(3H)-one] | 317 nM
5 | Cc1cnc(N)nc1-c1cc2ncn(CCC[C@H](C)Nc3cn[nH]c(=O)c3C(F)(F)F)c(=O)c2cc1F [Example 79, (S)-7-(2-amino-5-methylpyrimidin-4-yl)-6-fluoro-3-(4-((6-oxo-5-(trifluoromethyl)-1,6-dihydropyridazin-4-yl)amino)pentyl)quinazolin-4(3H)-one] | 1500 nM
6 | Cc1cnc(N)nc1-c1cc2ccn(CCC[C@H](C)Nc3cn[nH]c(=O)c3C(F)(F)F)c(=O)c2c(F)c1F [Example 80, (S)-6-(2-amino-5-methylpyrimidin-4-yl)-7,8-difluoro-2-(4-((6-oxo-5-(trifluoromethyl)-1,6-dihydropyridazin-4-yl)amino)pentyl)isoquinolin-1(2H)-one] | 479 nM
7 | C[C@@H](CCCn1ccc2cc(-c3ncc(C(F)(F)F)c(N)n3)c(F)c(F)c2c1=O)Nc1cn[nH]c(=O)c1C(F)(F)F [Example 81, (S)-6-(4-amino-5-(trifluoromethyl)pyrimidin-2-yl)-7,8-difluoro-2-(4-((6-oxo-5-(trifluoromethyl)-1,6-dihydropyridazin-4-yl)amino)pentyl)isoquinolin-1(2H)-one] | 4.26 nM
8 | C[C@@H](CCCn1cnc2cc(-c3ncc(C(F)F)cn3)c(F)cc2c1=O)Nc1cn[nH]c(=O)c1C(F)(F)F [Example 82, (S)-7-(5-(difluoromethyl)pyrimidin-2-yl)-6-fluoro-3-(4-((6-oxo-5-(trifluoromethyl)-1,6-dihydropyridazin-4-yl)amino)pentyl)quinazolin-4(3H)-one] | 63.4 nM
9 | C[C@@H](CCCn1cnc2cc(-c3ncc(C4CC4)cn3)c(F)cc2c1=O)Nc1cn[nH]c(=O)c1C(F)(F)F [Example 83, (S)-7-(5-cyclopropylpyrimidin-2-yl)-6-fluoro-3-(4-((6-oxo-5-(trifluoromethyl)-1,6-dihydropyridazin-4-yl)amino)pentyl)quinazolin-4(3H)-one] | 58.2 nM
10 | C[C@@H](CCCn1ccc2cc(-c3ncc(S(C)(=O)=O)cn3)c(F)cc2c1=O)Nc1cn[nH]c(=O)c1C(F)(F)F [Example 84, (S)-7-fluoro-6-(5-(methylsulfonyl)pyrimidin-2-yl)-2-(4-((6-oxo-5-(trifluoromethyl)-1,6-dihydropyridazin-4-yl)amino)pentyl)isoquinolin-1(2H)-one] | 263 nM
11 | O=c1[nH]ncc(NCCCCn2ccc3cc(-c4ncc(C(F)(F)F)cn4)c(F)c(F)c3c2=O)c1C(F)(F)F [Example 85, 7,8-difluoro-2-(4-((6-oxo-5-(trifluoromethyl)-1,6-dihydropyridazin-4-yl)amino)butyl)-6-(5-(trifluoromethyl)pyrimidin-2-yl)isoquinolin-1(2H)-one] | 113 nM
12 | O=c1[nH]ncc(N[C@@H](CO)CCCn2ccc3cc(-c4ncc(C(F)(F)F)cn4)c(F)cc3c2=O)c1C(F)(F)F [Example 88, 7-fluoro-2-[(4R)-5-hydroxy-4-[[6-oxo-5-(trifluoromethyl)-1H-pyridazin-4-yl]amino]pentyl]-6-[5-(trifluoromethyl)pyrimidin-2-yl]isoquinolin-1-one] | 86.2 nM
13 | C[C@@H](CC(F)(F)Cn1ccc2cc(-c3ncc(C(F)(F)F)cn3)c(F)cc2c1=O)Nc1cn[nH]c(=O)c1C(F)(F)F [Example 89, 2-[(4S)-2,2-difluoro-4-[[6-oxo-5-(trifluoromethyl)-1H-pyridazin-4-yl]amino]pentyl]-7-fluoro-6-[5-(trifluoromethyl)pyrimidin-2-yl]isoquinolin-1-one] | 40.5 nM
14 | C[C@@H](CC(=O)Cn1ccc2cc(-c3ncc(C(F)(F)F)cn3)c(F)cc2c1=O)Nc1cn[nH]c(=O)c1C(F)(F)F [Example 90, 7-fluoro-2-[(4S)-2-oxo-4-[[6-oxo-5-(trifluoromethyl)-1H-pyridazin-4-yl]amino]pentyl]-6-[5-(trifluoromethyl)pyrimidin-2-yl]isoquinolin-1-one] | 52 nM
15 | O=c1[nH]ncc(Nc2cccc(Cn3ccc4cc(-c5ncc(C(F)(F)F)cn5)c(F)cc4c3=O)c2)c1C(F)(F)F [Example 91, 7-fluoro-2-[[3-[[6-oxo-5-(trifluoromethyl)-1H-pyridazin-4-yl]amino]phenyl]methyl]-6-[5-(trifluoromethyl)pyrimidin-2-yl]isoquinolin-1-one] | 290 nM
16 | C[C@@H](CCCn1ccc2cc(-c3ncc(N(C)C)cn3)c(F)cc2c1=O)Nc1cn[nH]c(=O)c1C(F)(F)F [Example 92, (S)-6-(5-(dimethylamino)pyrimidin-2-yl)-7-fluoro-2-(4-((6-oxo-5-(trifluoromethyl)-1,6-dihydropyridazin-4-yl)amino)pentyl)isoquinolin-1(2H)-one] | 11.1 nM
17 | C[C@@H](CCCn1ccc2cc(-c3ncc(-c4cc(C(F)(F)F)n(C)n4)cn3)c(F)cc2c1=O)Nc1cn[nH]c(=O)c1C(F)(F)F [Example 93, (S)-7-fluoro-6-(5-(1-methyl-5-(trifluoromethyl)-1H-pyrazol-3-yl)pyrimidin-2-yl)-2-(4-((6-oxo-5-(trifluoromethyl)-1,6-dihydropyridazin-4-yl)amino)pentyl)isoquinolin-1(2H)-one] | 45.9 nM
18 | C[C@@H](CCCn1ccc2cc(-c3ncc4c(n3)CCC4)c(F)cc2c1=O)Nc1cn[nH]c(=O)c1C(F)(F)F [Example 94, (S)-6-(6,7-dihydro-5H-cyclopenta[d]pyrimidin-2-yl)-7-fluoro-2-(4-((6-oxo-5-(trifluoromethyl)-1,6-dihydropyridazin-4-yl)amino)pentyl)isoquinolin-1(2H)-one] | 22.8 nM
19 | Cc1cnc(-c2cc3ncn(CCC[C@H](C)Nc4cn[nH]c(=O)c4C(F)(F)F)c(=O)c3cc2F)nc1 [Example 95, (S)-6-fluoro-7-(5-methylpyrimidin-2-yl)-3-(4-((6-oxo-5-(trifluoromethyl)-1,6-dihydropyridazin-4-yl)amino)pentyl)quinazolin-4(3H)-one] | 97.1 nM
20 | C[C@@H](CCCn1ccc2cc(-c3cc(F)c(N)cn3)c(F)cc2c1=O)Nc1cn[nH]c(=O)c1C(F)(F)F [Example 96, (S)-6-(5-amino-4-fluoropyridin-2-yl)-7-fluoro-2-(4-((6-oxo-5-(trifluoromethyl)-1,6-dihydropyridazin-4-yl)amino)pentyl)isoquinolin-1(2H)-one] | 558 nM
21 | C[C@@H](CCCn1ccc2cc(-c3cc(C(F)(F)F)c(N)cn3)c(F)cc2c1=O)Nc1cn[nH]c(=O)c1C(F)(F)F [Example 97, (S)-6-(5-amino-4-(trifluoromethyl)pyridin-2-yl)-7-fluoro-2-(4-((6-oxo-5-(trifluoromethyl)-1,6-dihydropyridazin-4-yl)amino)pentyl)isoquinolin-1(2H)-one] | 67.3 nM
22 | C[C@@H](CCCn1ccc2cc(-c3ncc(Cl)cn3)c(F)cc2c1=O)Nc1cn[nH]c(=O)c1C(F)(F)F [Example 98, (S)-6-(5-chloropyrimidin-2-yl)-7-fluoro-2-(4-((6-oxo-5-(trifluoromethyl)-1,6-dihydropyridazin-4-yl)amino)pentyl)isoquinolin-1(2H)-one] | 9.67 nM
23 | C[C@@H](CCCn1ccc2cc(-c3ncc(N4CC5(COC5)C4)cn3)c(F)cc2c1=O)Nc1cn[nH]c(=O)c1C(F)(F)F [Example 99, (S)-6-(5-(2-oxa-6-azaspiro[3.3]heptan-6-yl)pyrimidin-2-yl)-7-fluoro-2-(4-((6-oxo-5-(trifluoromethyl)-1,6-dihydropyridazin-4-yl)amino)pentyl)isoquinolin-1(2H)-one] | 1280 nM
24 | C[C@@H](CCCn1ccc2cc(-c3ncc(C#N)c(N)n3)c(F)cc2c1=O)Nc1cn[nH]c(=O)c1C(F)(F)F [Example 101, 4-amino-2-[7-fluoro-1-oxo-2-[(4S)-4-[[6-oxo-5-(trifluoromethyl)-1H-pyridazin-4-yl]amino]pentyl]-6-isoquinolyl]pyrimidine-5-carbonitrile] | 12.6 nM
